From PMC6133092, “Synthesis of 2-alkylthio-N-(quinazolin-2-yl)benzenesulfonamide derivatives: anticancer activity, QSAR studies, and metabolic stability” (Monatshefte Fur Chemie, 2018)

Experiments:
HCT-116 (colon cancer) = experiment: MTT cell viability assay, HCT-116; assay type: cell-based; conditions: Homo sapiens, 72 h, mean ± SD
Method: (§1) All chemicals, if not stated otherwise, were obtained from Sigma-Aldrich (St. Louis, MO, USA). The MCF-7 and HeLa cell lines were purchased from Cell Lines Services (Eppelheim, Germany), the HCT-116 cell line was purchased from ATCC (ATCC-No: CCL-247). Cells were cultured in Dulbecco’s modified Eagle’s medium (DMEM) supplemented with 10% fetal bovine serum, 2 mM glutamine, 100 units/cm^3 penicillin, and 100 μg/cm^3 streptomycin. Cultures were maintained in a humidified atmosphere with 5% CO2 at 37 °C in an incubator (Heraceus, HeraCell).
(§2) Cell viability was determined using the MTT (3-(4,5-dimethylthiazol-2-yl)-2,5-diphenyltetrazolium bromide) assay. Cells were seeded in 96-well plates at a density of 5 × 10^3 cells/well and treated for 72 h with the examined compounds in the concentration range 1–100 μM (1, 10, 25, 50, and 100 μM). Following treatment, MTT (0.5 mg/cm^3) was added to the medium and cells were further incubated for 2 h at 37 °C. Cells were lysed with DMSO and the absorbance of the formazan solution was measured at 550 nm with a plate reader (Victor, 1420 multilabel counter). […] The experiment was performed in triplicate. Values are expressed as the mean ± SD of at least three independent experiments.

MCF-7 (breast cancer) = experiment: MTT cell viability assay, MCF-7; assay type: cell-based, human; conditions: Homo sapiens, MCF7, 72 h, mean ± SD
Method: (§3) All of the newly synthesized compounds 9–24 were evaluated for their effects on cell viability in three human cancer cell lines: HCT-116 (colon cancer), HeLa (cervical cancer), and MCF-7 (breast cancer). Cisplatin was used as reference drug. […] Considering the activity of derivatives 9–12, 15, 17, 18, and 21–24, it can be noticed that phenyl group as R^3 bring an increase of cytotoxicity in comparison with methyl in place of R^3. However, this impact seems to be the most important for compounds with the bulky group in R^1 and generally, it is less for a set of derivatives with methyl group substituted in R^1 (9–12).
as §1, §2

HaCaT = experiment: Cytotoxic effect against non-carcinogenic cell line HaCaT; assay type: cell-based; conditions: for IC50: Homo sapiens, HaCaT, non-carcinogenic cell line, mean ± SD; for activity against HCT-116 fold higher compared with HaCaT: selectivity HCT-116 vs HaCaT; for inhibition of growth of HaCaT cells fold weaker than HeLa cells: selectivity HeLa vs HaCaT
Method: For the compounds with the strongest cytotoxicity (12, 18, 22, and 24), an investigation of cytotoxic effect against non-carcinogenic cell line HaCaT was done. […] The activity against HCT-116 was 1.7-, 1.6-, 1.5-, and 1.4-fold higher when compared with HaCaT cell line, for compounds 12, 18, 22, and 24, respectively.
as §2

HCT-116, HeLa, MCF-7 = experiment: MTT assays, mean over three tested cell lines; assay type: cell-based; conditions: Homo sapiens, mean of HCT-116, HeLa, read-out: mean IC50 against three tested cell lines
Method: as §3, §2

MOLT-4 = experiment: NCI-60 single dose screen, MOLT-4; assay type: cell-based; conditions: Homo sapiens, Leukemia, single concentration 10^−5 M, read-out: IGP (inhibition growth percent) MOLT-4
Method: (§4) Aside from above, compounds 9–14 and 17–24 were also submitted to National Cancer Institute and evaluated for the cytotoxic effects toward 60 cell lines at a single dose of 10 μM (Table 2). […] As it was summarized in Table 2, leukemia RPMI-8226 and NSCLC A549/ATCC were most sensitive to compounds 18, 22, and 24. These derivatives in 10 μM concentration inhibited the growth of approximately 50% cells belonging to the above mention cell lines.
(§5) Cytotoxicity evaluation of compounds 9–14 and 17–24 was performed at the National Cancer Institute according to NCI-60 DTP human tumor cell line screen procedure.

RPMI-8226 = experiment: NCI-60 single dose screen, RPMI-8226; assay type: cell-based; conditions: Homo sapiens, RPMI-8226, Leukemia; single concentration 10^−5 M; read-out: IGP (inhibition growth percent) RPMI-8226
Method: as §4, §5

SR = experiment: NCI-60 single dose screen, SR; assay type: cell-based; conditions: Homo sapiens, Leukemia, single concentration 10^−5 M, read-out: IGP (inhibition growth percent) SR
Method: as §4, §5

A549/ATCC = experiment: NCI-60 single dose screen, A549/ATCC; assay type: cell-based; conditions: Homo sapiens, A549, NSCLC; single concentration 10^−5 M; read-out: IGP (inhibition growth percent) A549/ATCC
Method: as §4, §5

EKVX = experiment: NCI-60 single dose screen, EKVX; assay type: cell-based; conditions: Homo sapiens, NSCLC, single concentration 10^−5 M, read-out: IGP (inhibition growth percent) EKVX
Method: as §4, §5

HOP-92 = experiment: NCI-60 single dose screen, HOP-92; assay type: cell-based; conditions: Homo sapiens, NSCLC, single concentration 10^−5 M, read-out: IGP (inhibition growth percent) HOP-92
Method: as §4, §5

NCI-H522 = experiment: NCI-60 single dose screen, NCI-H522; assay type: cell-based; conditions: Homo sapiens, NSCLC, single concentration 10^−5 M, read-out: IGP (inhibition growth percent) NCI-H522
Method: as §4, §5

HCT-116 = experiment: NCI-60 single dose screen, HCT-116; assay type: cell-based; conditions: Homo sapiens, Colon cancer, single concentration 10^−5 M, read-out: IGP (inhibition growth percent) HCT-116
Method: as §4, §5

UACC-62 = experiment: NCI-60 single dose screen, UACC-62; assay type: cell-based; conditions: Homo sapiens, Melanoma, single concentration 10^−5 M, read-out: IGP (inhibition growth percent) UACC-62
Method: as §4, §5

PC-3 = experiment: NCI-60 single dose screen, PC-3; assay type: cell-based; conditions: Homo sapiens, Prostate cancer, single concentration 10^−5 M, read-out: IGP (inhibition growth percent) PC-3
Method: as §4, §5

MCF-7 = experiment: NCI-60 single dose screen, MCF-7; assay type: cell-based; conditions: Homo sapiens, MCF7; Breast cancer; single concentration 10^−5 M; read-out: IGP (inhibition growth percent) MCF-7
Method: as §4, §5

Row | IC50 (HCT-116 (colon cancer)) [µM] | IC50 (MCF-7 (breast cancer)) [µM] | IC50 (HCT-116, HeLa, MCF-7) [µM] | Structure (SMILES) | IC50 (HaCaT) [µM] | activity against HCT-116 fold higher compared with HaCaT (HaCaT) [fold] | inhibition of growth of HaCaT cells fold weaker than HeLa cells (HaCaT) [fold] | inhibition at 10 µM (MOLT-4) [%] | inhibition at 10 µM (RPMI-8226) [%] | inhibition at 10 µM (SR) [%] | inhibition at 10 µM (A549/ATCC) [%] | inhibition at 10 µM (EKVX) [%] | inhibition at 10 µM (HOP-92) [%] | inhibition at 10 µM (NCI-H522) [%] | inhibition at 10 µM (HCT-116) [%] | inhibition at 10 µM (UACC-62) [%] | inhibition at 10 µM (PC-3) [%] | inhibition at 10 µM (MCF-7) [%]
1 | 42 ± 1 | 46 ± 1 | 44.7 | O=C(Nc1ccccc1)c1cc(S(=O)(=O)Nc2nc(-c3ccccc3)c3ccccc3n2)c(SCc2ccccc2)cc1Cl [Compound 18, 2-Benzylthio-4-chloro-5-phenylcarbamoyl-N-(4-phenylquinazolin-2-yl)benzenesulfonamide] | 68 ± 2 | 1.6 | 1.5 | 36 | ~50 | 28 | ~50 | 35 | 26 | 25 | 31 | 39 | 24 | 14
2 | 39 ± 1 | 53 ± 1 | 44.7 | O=C(Nc1ccc(Cl)cc1)c1cc(S(=O)(=O)Nc2nc(-c3ccccc3)c3ccccc3n2)c(SCc2ccccc2)cc1Cl [Compound 22, 2-Benzylthio-4-chloro-5-(4-chlorophenylcarbamoyl)-N-(4-phenylquinazolin-2-yl)benzenesulfonamide] | 59 ± 1 | 1.5 | 1.4 | 52 | ~50 | 40 | ~50 | 28 | 34 | 35 | 39 | 40 | 44 | 20
3 | 41 ± 1 | 52 ± 3 | 45.7 | Cc1ccc(NC(=O)c2cc(S(=O)(=O)Nc3nc(-c4ccccc4)c4ccccc4n3)c(SCc3ccccc3)cc2Cl)cc1 [Compound 24, 2-Benzylthio-4-chloro-5-(4-methylphenylcarbamoyl)-N-(4-phenylquinazolin-2-yl)benzenesulfonamide] | 58 ± 1 | 1.4 | 1.3 | 21 | ~50 | 23 | ~50 | 45 | 26 | 28 | 44 | 28 | 49 | 23
